Test results from US10111885B2, “Compositions and therapeutic methods for the treatment of complement-associated diseases” (Resverlogix Corp., priority 2015, dated 2018).
Read-outs that look alike come from different tables or passages of the source.

Assays:
[1] = test system: C4a/C4b mRNA; experiment: Complement gene mRNA expression, TaqMan real-time PCR, Huh-7 cells; format: cell-based, human; conditions: Homo sapiens
From the text: (§1) In this example, mRNA levels from cultured cells were quantitated. The assay can be used to determine the effect of compound(s) on regulating mRNA levels, including those compounds in the present invention. Complement genes are expressed at high endogenous levels, but their expression can also be stimulated with various cytokines in inflammatory conditions. Experiments in this example target both basal and inflammatory complement gene expression. Compound mediated changes in gene expression and resulting mRNA levels are presented in Tables 2, 3 and 4 as well as FIGS. 1, 2, 3 and 4 below.
(§2) Huh-7 and HepG2 cells are liver-derived cell lines and are models for what can occur in the liver. Huh-7 cells (JCRB Cell Bank) were introduced to 96-well plates (^˜2.5×10^5 per well) in 100 μL DMEM containing 10% (v/v) FBS, 100 U/mL penicillin, 100 ug/mL streptomycin and 5 ug/mL plasmocin (all reagents from Gibco, except for the former, which was obtained from Invivogen). After 24 h, Huh-7 cells were treated with compounds in the same media formulation used for plating, and supplemented with 0.1% DMSO for the amount of time indicated in tables 2, 3, and 4. For select experiments, 24 h post-plating, cells were treated with cytokines and the compound of interest simultaneously, for a total treatment time of 48 h. Alternatively, 24 h after plating, cells were pre-treated with cytokines for 24 h before adding the compound of interest for 48 h. HepG2 cells (ATCC) were cultured in 96-well plates (^˜2.5×10^5 per well) in MEM containing 10% FBS, 1× non-essential amino acids, 1 mM sodium pyruvate, 2 mM L-glutamine, 100 U/mL penicillin, 100 ug/mL streptomycin and 5 ug/mL plasmocin. Serum amount was reduced to 0.5% for treatments with compound or cytokines. Timing of treatment of HepG2 cells with compounds and cytokines was as described for Huh-7 cells. Primary human hepatocytes (CellzDirect/Life Technologies) were plated in collagen coated 96-well plates at 70 000 cells/well, then overlaid with Matrigel™ as recommended by the supplier. Cells were treated with compounds of interest and/or cytokines for the indicated time points in the recommended media supplemented with 0.1% DMSO and 10% FBS (v/v). Cells were harvested by mRNA Catcher PLUS Kit (Life Technologies) followed by real-time PCR using the RNA UltraSense One-Step qRT-PCR System. The level of the mRNA of interest was measured by TaqMan real-time PCR relative to the endogenous control cyclophilin A in the same sample. Data were acquired using the ViiA-7 Real Time PCR System (Applied Biosystems).
(§3) Downregulation of expression of components of the complement cascade will result in reduced activity of the pathway and thus will constitute a positive result. Tables 2 and 3 list the concentration of compounds at which the level of the indicated mRNA is reduced by 50%, as well as the duration of treatment with compound. Table 4 lists the maximum reduction in the indicated mRNA measured in primary human hepatocytes treated with compounds for up to 72 hours. FIGS. 1, 2, 3 and 4 show effects of compounds on cytokine-induced (i.e. inflammatory) expression of complement genes in Huh-7 cells and HepG2 cells.

[2] = test system: C3 mRNA; experiment: as above; format: cell-based, human; conditions: Homo sapiens
From the text: as §1, §2, §3

[3] = test system: erythrocyte lysis; conditions: erythrocyte lysis animal model; cited from earlier work
[4] = test system: ex vivo perfused pig xenografts; conditions: porcine-to-human kidney perfusion animal model; cited from earlier work
[5] = test system: C5 mRNA; experiment: Complement gene mRNA expression, TaqMan real-time PCR, Huh-7 cells; format: cell-based, human; conditions: Homo sapiens; Huh-7, 48 h treatment; read-out: C5 (48 h) mRNA, half maximal inhibitory concentration (IC50)
From the text: as §1, §2, §3

[6] = hereditary angioedema; cited from earlier work
[7] = Huh-7, 48 h treatment (Table 3), read-out: mRNA expression in Huh-7 cells: IC50 (uM), C4
[8] = Huh-7, 48 h treatment (Table 3), read-out: mRNA expression in Huh-7 cells: IC50 (uM), C3
[9] = Huh-7, 48 h treatment, read-out: C4a/C4b (48 h) mRNA, half maximal inhibitory concentration (IC50)
[10] = Huh-7, 48 h treatment, read-out: C3 (48 h) mRNA, half maximal inhibitory concentration (IC50)

Row | Molecule | IC50 [1, 7] [µM] | IC50 [2, 8] [µM] | further results
1 | COc1cc(OC)c2c(=O)[nH]c(-c3ccc(N4CCNCC4)cc3)nc2c1 [RVX002141] | 17.8 | 15.4 | –
2 | COc1cc(OC)c2c(=O)[nH]c(-c3cc(C)c(OCCNS(C)(=O)=O)c(C)c3)nc2c1 [RVX002093, N-(2-(4-(5,7-dimethoxy-4-oxo-3,4-dihydroquinazolin-2-yl)-2,6-dimethylphenoxy)ethyl)methanesulfonamide] | 17.2 | 18.5 | –
3 | COc1cc(OC)c2c(=O)[nH]c(-c3cc(C)c(OCCN4CCC(F)(F)C4)c(C)c3)nc2c1 [RVX000843] | > 50 | 11.1 | –
4 | CC[C@H](C)[C@H](N)C(=O)N[C@H]1CSSC[C@@H](C(=O)N[C@H](C(N)=O)[C@@H](C)O)NC(=O)[C@H](CCCN=C(N)N)NC(=O)[C@H](Cc2cnc[nH]2)NC(=O)[C@H](Cc2cnc[nH]2)NC(=O)CNC(=O)[C@H](Cc2c[nH]c3ccccc23)NC(=O)[C@H](CC(=O)O)NC(=O)[C@H](CCC(N)=O)NC(=O)[C@H](C(C)C)NC(=O)[C@H](C(C)C)NC1=O [compstatin] | – | – | reduction of hemolysis [3]: 50%; graft survival [4]: prolonged graft survival
5 | COc1cc(OC)c2c(=O)[nH]c(-c3cc(C)c(OCCN4CCCC4)c(C)c3)nc2c1 [RVX000297] | – | – | IC50 [5]: > 10 µM; IC50 [1, 9]: 4.5 µM; IC50 [2, 10]: 4.7 µM
6 | COc1cc(OC)c2c(=O)[nH]c(-c3cc(C)c(OCCN4CCCC4)c(C)c3)nc2n1 [RVX000662] | 21.1 | 29.2 | –
7 | COc1cc(OC)c2c(=O)[nH]c(-c3ccc(N4CCN(C)CC4)cc3)nc2c1 [RVX000255, 5,7-dimethoxy-2-(4-(4-methylpiperazin-1-yl)phenyl)quinazolin-4(3H)-one] | 17.4 | 20.4 | –
8 | COc1cc(OC)c2c(=O)[nH]c(-c3cc(C)c(OCCNC(C)=O)c(C)c3)nc2c1 [RVX002101] | 22 | 11.3 | –
9 | COc1cc(OC)c2c(=O)[nH]c(-c3cc(C)c(OCCNC(C)C)c(C)c3)nc2c1 [RVX002135] | – | – | IC50 [5]: 37.9 µM; IC50 [1, 9]: 4.3 µM; IC50 [2, 10]: 2.2 µM
10 | COc1cc(OC)c2c(=O)[nH]c(-c3ccc(N4CCN(C(C)C)CC4)cc3)nc2c1 [RVX002109] | – | – | IC50 [5]: > 50 µM; IC50 [1, 9]: 62.2 µM; IC50 [2, 10]: 34.8 µM
11 | Recombinant human C1INH: recombinant human C1 esterase inhibitor (protein, UniProt P05155 23-500, looked up) Plasma protease C1 inhibitor: NPNATSSSSQDPESLQDRGEGKVATTVISKMLFVEPILEVSSLPTTNSTTNSATKITANTTDEPTTQPTTEPTTQPTIQPTQPTTQLPTDSPTQPTTGSFCPGPVTLCSDLESHSTEAVLGDALVDFSLKLYHAFSAMKKVETNMAFSPFSIASLLTQVLLGAGENTKTNLESILSYPKDFTCVHQALKGFTTKGVTSVSQIFHSPDLAIRDTFVNASRTLYSSSPRVLSNNSDANLELINTWVAKNTNNKISRLLDSLPSDTRLVLLNAIYLSAKWKTTFDPKKTRMEPFHFKNSVIKVPMMNSKKYPVAHFIDQTLKAKVGQLQLSHNLSLVILVPQNLKHRLEDMEQALSPSVFKAIMEKLEMSKFQPTLLTLPRIKVTTSQDMLSIMEKLEFFDFSYDLNLCGLTEDPDLQVSAMQHQTVLELTETGVEAAAASAISVARTLLVFEVQQPFLFVLWDQQHKFPVFMGRVYDPRA | – | – | symptoms of repeat HAE attacks [6]: effective in improving symptoms

More lines, main results first:

Row | IC50 [1, 7] [µM] | IC50 [2, 8] [µM] | Molecule | further results
12 | 15.6 | 9.5 | COc1cc(OC)c2c(=O)[nH]c(-c3ccc4[nH]c(CN(C)C)cc4c3)nc2c1 [RVX000668] | –
13 | 9.3 | 12.6 | COc1cc(OCCN2CCCC2)cc(-c2nc3cc(OC)cc(OC)c3c(=O)[nH]2)c1 [RVX000641] | –
14 | 13.8 | 13.9 | COc1cc(OC)c2c(=O)[nH]c(-c3cc(C)c(OCCNC(=O)C(C)C)c(C)c3)nc2c1 [RVX002103] | –
15 | 15.6 | 11.6 | COc1cc(OC)c2c(=O)[nH]c(-c3cc(C)c(OCC(O)CO)c(C)c3)nc2c1 (stereo not drawn) [RVX000344] | –
16 | 7.8 | 5.8 | COC(=O)NCCOc1c(C)cc(-c2nc3cc(OC)cc(OC)c3c(=O)[nH]2)cc1C [RVX002113] | –
17 | 9.3 | 3.6 | COc1cc(OC)c2c(=O)[nH]c(-c3cc(C)c(O)c(C)c3)nc2c1 [RVX000206] | –
